Experimental findings from patent US8716246B2, “Azuvirin peptides” (The Regents of the University of California, priority 2011, dated 2014) are described below.

The target in experiment [1] is T1, rhEphB4 (Homo sapiens, UniProt P54760).
T1 construct: purchased R&D Systems, Inc., Minneapolis, Minn
T1 sequence (P54760 16-987): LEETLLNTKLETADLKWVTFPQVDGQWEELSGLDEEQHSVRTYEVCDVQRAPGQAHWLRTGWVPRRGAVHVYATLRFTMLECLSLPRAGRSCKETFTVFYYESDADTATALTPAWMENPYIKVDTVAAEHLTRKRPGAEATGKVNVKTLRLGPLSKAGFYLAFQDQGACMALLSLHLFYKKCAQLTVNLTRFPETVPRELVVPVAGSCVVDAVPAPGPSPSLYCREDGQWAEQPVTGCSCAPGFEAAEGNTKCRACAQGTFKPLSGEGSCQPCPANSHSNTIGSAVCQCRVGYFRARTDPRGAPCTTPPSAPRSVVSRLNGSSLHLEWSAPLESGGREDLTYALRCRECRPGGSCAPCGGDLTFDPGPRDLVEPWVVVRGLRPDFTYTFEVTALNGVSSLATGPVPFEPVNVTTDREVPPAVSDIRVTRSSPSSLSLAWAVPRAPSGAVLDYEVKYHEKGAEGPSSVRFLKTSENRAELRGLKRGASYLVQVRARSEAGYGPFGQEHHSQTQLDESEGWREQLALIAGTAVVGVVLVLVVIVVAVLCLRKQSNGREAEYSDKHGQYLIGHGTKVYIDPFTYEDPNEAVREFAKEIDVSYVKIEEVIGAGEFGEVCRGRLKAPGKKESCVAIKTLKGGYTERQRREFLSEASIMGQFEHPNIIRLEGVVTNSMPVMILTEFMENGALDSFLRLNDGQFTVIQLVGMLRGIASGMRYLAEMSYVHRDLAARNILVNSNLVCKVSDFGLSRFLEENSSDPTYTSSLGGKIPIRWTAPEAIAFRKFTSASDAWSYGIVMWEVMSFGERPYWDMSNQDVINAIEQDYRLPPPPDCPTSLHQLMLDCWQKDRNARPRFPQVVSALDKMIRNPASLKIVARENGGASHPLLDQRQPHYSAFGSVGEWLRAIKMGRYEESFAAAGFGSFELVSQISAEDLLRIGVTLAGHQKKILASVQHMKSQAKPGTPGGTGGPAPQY
Description: SPR binding to immobilized rhEphB4 (Biacore 3000). As to the method:
(§1) Binding to selected ephrin receptors was measured by surface plasmon resonance on a Biacore3000 instrument. Commercially available ephrin receptors: EphA2, EphB2 and EphB4 (R&D Systems) were immobilized on a CM-5 chip by amine coupling and tested peptides were passed over a chip surface as analytes.
(§2) Binding studies. Binding studies were performed by surface plasmon resonance (SPR) on a BIAcore 3000 system (BiaCore AB, Piscataway, N.J.). BIAcore CM5 sensor chips were utilized in all experiments. Binding studies were performed in HBS-EP running buffer (pH=7.4) containing 10 mM HEPES, 150 mM NaCl, 3 mM EDTA, and 0.005% polysorbate 20. Commercially available ephrin receptors: EphA2, EphB2 and EphB4 (R&D Systems, Inc., Minneapolis, Minn.) were immobilized on a CM5 sensor chip using the amine coupling method. The chip was activated by mixing 400 mM N-ethyl-N-(3-dimethylaminopropyl)-carbodiimide hydrochloride and 100 mM N-hydroxysuccinimide. Residual reactive groups on the chip surface were blocked using 1.0 M ethanolamine/HCl (pH=8.5). The flow cell-1 chip, which served as a control, lacked immobilized protein but was treated with N-ethyl-N-(3-dimethylaminopropyl)-carbodiimide hydrochloride, N hydroxysuccinimide, and ethanolamine/HCl. Binding signals were corrected for nonspecific binding by subtracting the flow cell-1 signal (blank surface). To regenerate chip surfaces, bound ligands were removed with 10 mM HCl. Data were analyzed with BIAevaluation 4.1 software (Biacore, Piscataway, N.J.).

In experiment [2] the target is rhEphA2 (Homo sapiens, UniProt P29317). Description: SPR binding to immobilized rhEphA2 (Biacore 3000). Further details: purchased R&D Systems, Inc., Minneapolis, Minn. As to the method:
as §1, §2
Background: SPR reads the build-up and loss of mass on a sensor chip optically.

For experiment [3], the target named is rhEphB2/Fc (Homo sapiens, UniProt P29323). Description: SPR binding to immobilized rhEphB2/Fc (Biacore 3000). Further details: Fc; purchased R&D Systems, Inc., Minneapolis, Minn. As to the method: as §1, §2

Like-named read-outs stand apart in the source and are kept apart here. Bridge positions count the residues as written; N and C are the ends. Square brackets hold non-standard residues; d marks the D form. Peptide text beside a SMILES is read from it. * marks the point of attachment. Oic = O=C(O)[C@@H]1C[C@@H]2CCCC[C@@H]2N1; Cha = N[C@@H](CC1CCCCC1)C(=O)O; Tle = CC(C)(C)[C@H](N)C(=O)O; Nicotinoyl = O=C(c1cccnc1)*

In the case of `C[C@@H](O)[C@@H]1NC(=O)[C@H](CCCNC(=N)N)NC(=O)[C@H](Cc2c[nH]cn2)NC(=O)CNC(=O)[C@@H]2C[C@@H]3CCCC[C@@H]3N2C(=O)[C@H](CC2CCCCC2)NC(=O)[C@H](C(C)(C)C)NC(=O)[C@@H](NC(=O)[C@H](CC2CCCCC2)NC(=O)[C@H](CC2CCCCC2)NC(=O)[C@H](CCCCN)NC(=O)[C@@H](N)Cc2ccc(O)cc2)CSSC[C@@H](C(=O)N[C@@H](CCCCN)C(N)=O)NC(=O)[C@H](CC2CCCCC2)NC1=O` [AzV31] (H-YK[Cha][Cha]C[Tle][Cha][Oic]GHRT[Cha]CK-NH2; disulfide 5-14; N-terminus assumed), the Kd was determined as 0.146 ± 0.014 µM in experiment [1] (SPR, averaged from at least 4 independent experiments, read-out: KD ± SEM, rhEphB4); 0.196 ± 0.025 µM in experiment [2] (SPR, averaged from at least 4 independent experiments, read-out: KD ± SEM, rhEphA2); 0.192 ± 0.024 µM in experiment [3] (SPR, averaged from at least 4 independent experiments, read-out: KD ± SEM, rhEphB2/Fc).

`C[C@@H](O)[C@@H]1NC(=O)[C@H](CCCNC(=N)N)NC(=O)[C@H](Cc2c[nH]cn2)NC(=O)[C@@H](CCCNC(=N)N)NC(=O)[C@@H]2C[C@@H]3CCCC[C@@H]3N2C(=O)[C@H](CC2CCCCC2)NC(=O)[C@H](C(C)(C)C)NC(=O)[C@@H](NC(=O)[C@H](CC2CCCCC2)NC(=O)[C@H](CC2CCCCC2)NC(=O)[C@H](CCCCN)NC(=O)[C@@H](N)Cc2ccc(O)cc2)CSSC[C@@H](C(=O)N[C@H](CCCCN)C(N)=O)NC(=O)[C@H](CC2CCCCC2)NC1=O` [AzV32] (H-YK[Cha][Cha]C[Tle][Cha][Oic][dR]HRT[Cha]C[dK]-NH2; disulfide 5-14): the Kd in experiment [1] amounted to 0.197 ± 0.09 µM; in experiment [2] it was 0.169 ± 0.029 µM; in experiment [3] it was 0.471 ± 0.16 µM.

In the case of `C[C@@H](O)[C@@H]1NC(=O)[C@H](CCCNC(=N)N)NC(=O)[C@H](Cc2c[nH]cn2)NC(=O)CNC(=O)[C@@H]2C[C@@H]3CCCC[C@@H]3N2C(=O)[C@H](CC2CCCCC2)NC(=O)[C@@H](CCCNC(=N)N)NC(=O)[C@@H](NC(=O)[C@H](CC2CCCCC2)NC(=O)[C@H](CC2CCCCC2)NC(=O)[C@H](CCCCN)NC(=O)[C@@H](N)Cc2ccc(O)cc2)CSSC[C@@H](C(=O)N[C@H](CCCCN)C(N)=O)NC(=O)[C@H](CC2CCCCC2)NC1=O` [AzV33] (H-YK[Cha][Cha]C[dR][Cha][Oic]GHRT[Cha]C[dK]-NH2; disulfide 5-14), the Kd in experiment [1] is 0.0786 ± 0.0045 µM; in experiment [2], 0.1 ± 0.021 µM; in experiment [3], 0.106 ± 0.012 µM.

As for `C[C@@H](O)[C@@H]1NC(=O)[C@H](CCCNC(=N)N)NC(=O)[C@H](Cc2c[nH]cn2)NC(=O)CNC(=O)[C@@H]2C[C@@H]3CCCC[C@@H]3N2C(=O)[C@H](CC2CCCCC2)NC(=O)[C@H](C(C)(C)C)NC(=O)[C@@H](NC(=O)[C@H](CC2CCCCC2)NC(=O)[C@H](CC2CCCCC2)NC(=O)[C@@H](CCCCN)NC(=O)[C@@H](N)Cc2ccc(O)cc2)CSSC[C@@H](C(=O)N[C@H](CCCCN)C(N)=O)NC(=O)[C@H](CC2CCCCC2)NC1=O` [AzV34] (H-Y[dK][Cha][Cha]C[Tle][Cha][Oic]GHRT[Cha]C[dK]-NH2; disulfide 5-14), the Kd in experiment [1] worked out at 0.135 ± 0.021 µM; in experiment [2] it was 0.196 ± 0.021 µM; in experiment [3], 0.189 ± 0.021 µM.

Turning to `C[C@@H](O)[C@@H]1NC(=O)[C@H](CCCNC(=N)N)NC(=O)[C@H](Cc2c[nH]cn2)NC(=O)[C@@H](CCCNC(=N)N)NC(=O)[C@@H]2C[C@@H]3CCCC[C@@H]3N2C(=O)[C@H](CC2CCCCC2)NC(=O)[C@@H](CCCNC(=N)N)NC(=O)[C@@H](NC(=O)[C@H](CC2CCCCC2)NC(=O)[C@H](CC2CCCCC2)NC(=O)[C@H](CCCCN)NC(=O)[C@@H](N)Cc2ccc(O)cc2)CSSC[C@@H](C(=O)N[C@H](CCCCN)C(N)=O)NC(=O)[C@H](CC2CCCCC2)NC1=O` [AzV35] (H-YK[Cha][Cha]C[dR][Cha][Oic][dR]HRT[Cha]C[dK]-NH2; disulfide 5-14), the values for the Kd in experiment [1], in experiment [2] and in experiment [3] were 0.0735 ± 0.0037 µM, 0.126 ± 0.022 µM and 0.147 ± 0.019 µM, respectively.

With `C[C@@H](O)[C@@H]1NC(=O)[C@H](CCCNC(=N)N)NC(=O)[C@H](Cc2c[nH]cn2)NC(=O)[C@@H](CCCNC(=N)N)NC(=O)[C@@H]2C[C@@H]3CCCC[C@@H]3N2C(=O)[C@H](CC2CCCCC2)NC(=O)[C@H](C(C)(C)C)NC(=O)[C@@H](NC(=O)[C@H](CC2CCCCC2)NC(=O)[C@H](CC2CCCCC2)NC(=O)[C@@H](CCCCNC(=O)c2cccnc2)NC(=O)[C@@H](N)Cc2ccc(O)cc2)CSSC[C@@H](C(=O)N[C@H](CCCCN)C(N)=O)NC(=O)[C@H](CC2CCCCC2)NC1=O` [AzV36-Nic, YkNic-Cha-Cha-Cys-Tle-Cha-Oic-rHRT-Cha-Cys-k-CONH] (H-Y[dK](Nicotinoyl)[Cha][Cha]C[Tle][Cha][Oic][dR]HRT[Cha]C[dK]-NH2; disulfide 5-14), the values for the Kd in experiment [1], in experiment [2] and in experiment [3] were 0.138 ± 0.041 µM, 0.425 ± 0.226 µM and 0.251 ± 0.12 µM, respectively.

For the compound `C[C@@H](O)[C@@H]1NC(=O)[C@H](CCCNC(=N)N)NC(=O)[C@H](Cc2c[nH]cn2)NC(=O)CNC(=O)[C@@H]2C[C@@H]3CCCC[C@@H]3N2C(=O)[C@H](CC2CCCCC2)NC(=O)[C@@H](CCCNC(=N)N)NC(=O)[C@@H](NC(=O)[C@H](CC2CCCCC2)NC(=O)[C@H](CC2CCCCC2)NC(=O)[C@@H](CCCCN)NC(=O)[C@@H](N)Cc2ccc(O)cc2)CSSC[C@@H](C(=O)N[C@H](CCCCN)C(N)=O)NC(=O)[C@H](CC2CCCCC2)NC1=O` [AzV37] (H-Y[dK][Cha][Cha]C[dR][Cha][Oic]GHRT[Cha]C[dK]-NH2; disulfide 5-14), the Kd came out at 0.076 ± 0.014 µM in experiment [1], 0.152 ± 0.038 µM in experiment [2] and 0.143 ± 0.037 µM in experiment [3].

On to `C[C@@H](O)[C@@H]1NC(=O)[C@H](CCCNC(=N)N)NC(=O)[C@H](Cc2c[nH]cn2)NC(=O)[C@@H](CCCNC(=N)N)NC(=O)[C@@H]2C[C@@H]3CCCC[C@@H]3N2C(=O)[C@H](CC2CCCCC2)NC(=O)[C@@H](CCCNC(=N)N)NC(=O)[C@@H](NC(=O)[C@H](CC2CCCCC2)NC(=O)[C@H](CC2CCCCC2)NC(=O)[C@@H](CCCCN)NC(=O)[C@@H](N)Cc2ccc(O)cc2)CSSC[C@@H](C(=O)N[C@H](CCCCN)C(N)=O)NC(=O)[C@H](CC2CCCCC2)NC1=O` [AzV38] (H-Y[dK][Cha][Cha]C[dR][Cha][Oic][dR]HRT[Cha]C[dK]-NH2; disulfide 5-14), for which the Kd amounted to 0.0463 ± 0.0038 µM in experiment [1], 0.109 ± 0.0035 µM in experiment [2] and 0.101 ± 0.0027 µM in experiment [3].
